Experimental data published in publication PMC5431684, “Zwitterionic near infrared fluorescent agents for noninvasive real-time transcutaneous assessment of kidney function” (Chemical Science, 2017).
Several values for one entry are separate records, joined by “and”; a condition that tells them apart may be missing. Equal entries are not always repeated. Where two headings read alike, the source gives them in different places. One block for each compound: values may come before it.

How the values were obtained:
plasma protein = details: cited from earlier work
[1] = Transcutaneous measurement of elimination kinetics in healthy rats; format: in vivo, Sprague Dawley rats; details: for Transcutaneous elimination (clearance) curve, in words: i.v. injection
Procedure: (§1) The principles and methods of the transcutaneous technique are described in Fig. S10. ^† Firstly, as a control, IRDye800CW was chosen to be injected intravenously into rats and its elimination curves were measured transcutaneously. […] A long retention time of IRDye800CW in vivo was attributed to its higher PPB (41%) and negative charge feature, leading to skin accumulation and slow renal excretion. […] To assess whether the anionic agent ABANCY-HPβCD is reabsorbed or secreted by organic anion transporter (OAT) proteins in the kidney tubules, probenecid, an inhibitor of OAT proteins,[18] was administered (30 min prior to injection of ABANCY-HPβCD) to block tubular reabsorption and the secretion pathway, then, elimination curves were measured for the same rats. […] We also measured the cationic HPβCD based agent in the same manner and the results are similar to those of anionic HPβCD based agents. Next, the free dye ABZWCY was injected intravenously and its elimination curves were also recorded transcutaneously. […] This is in agreement with their similar PPB values (∼20%). To determine whether ABZWCY has tubular reabsorption or secretion in addition to filtration, probenecid was administered to block tubular reabsorption and the secretion pathway. […]
(§2) 8. Principle and methods for transcutaneous measurements of kidney function The transcutaneous assessment of renal function is based on the measurement of the fluorescence signal of a marker through the skin. A miniaturized transcutaneous device is comprised of two light emitting diodes (LEDs) and one photodiode (Figure S10a and 10b). The LEDs can blink every few seconds to excite a fluorescent marker using excitation wavelength of 700 nm. The fluorescent signal will be recorded by detecting the emission intensity of a fluorescent marker at 790 nm. Data are stored in the device and can be read out after measurement.[6] The clearance half-life of fluorescent agents was calculated by software, which was developed by the Institute of Medical Technology of the University of Heidelberg.[7] For this a 3-exponential function was fitted to the measured elimination curve, the peak of the curve was supposed to be 100%. Also a 1-exponential function was applied from 50% to 15% of the peak […]
(§3) Figure. S10. (a) Transcutaneous device and battery used for the transcutaneous measurement, the photodiodes and LEDs in the device. (b) A schematic overview of the excitation and emission light between a transcutaneous device and fluorescent agents in capillary vessel after injection. (c-g) The fixation procedures of a transcutaneous device on the skin and measurements in a […]
(§4) Healthy Sprague Dawley rats (Body weight: 250-300 g, 8-10 weeks) were anesthetized for a short period with Isoflurane (Forene®, AbbVie, Illinois, USA; Dosage: 5 %; Flow(O2): 5 L/min) in order to fix the transcutaneous device on the back of rats. The back of the animals was depilated with an electric shaver (Figure 10c-g). After a baseline measurement for around 5 min, a fluorescent agent in saline (DeltaSelect, GmbH, Rimbach, Germany) was injected as a bolus by tail vein injection. […] The devices were removed and the data were read out after 120 min of transcutaneous measurement. The clearance half-life of fluorescent agents was calculated by software. […]

[2] = Urinary recovery of injected dose (metabolic cages); format: in vivo, Sprague Dawley rats
Procedure: With this in mind, we investigated the recoveries of injected doses using in vivo experiments with metabolic cages. High urinary recoveries were determined for the free dye ABZWCY and its mixture with HPβCD (99.4 ± 4.8% and 96.5 ± 5.8%, respectively, Fig. 4 and Tables 2 and S6 ^†). Similar tendencies of urinary recoveries of ABZWCY-HPβCD and AAZWCY-HPβCD with values of 97 ± 3.9% and 103.3 ± 4.2%, respectively, were also observed (Fig. 4, and Tables 2 and S7 ^†). Indeed, urinary recoveries of the given dose were almost completed at 9 h post-injection for ABZWCY-HPβCD and AAZWCY-HPβCD, which is faster than the free dye ABZWCY and in agreement with their shorter clearance half-life.
All experiments were conducted in accordance with the German Animal Protection Law and approved by the local authority (Regierungspräsidium Nordbaden, Karlsruhe Germany in agreement with EU guideline 2010/63/EU). […]
10. Urinary recovery of injected dose in urine studies
Recovery of the injected dose in urine studies were conducted in conscious, healthy Sprague Dawley rats (Body weight: 250-300 g). The corresponding test agents with corresponding dosage (ABZWCY: 2.5 mg/kg, ABZWCY mixed with HPβCD: 2.5 mg/kg mixed with 22.5 mg/kg (HPβCD), ABZWCY-HPβCD and AAZWCY-HPβCD: 50 mg/kg) were administered by tail vein injection. Urine was collected using metabolic cages in intervals of 1, 2, 3, 6, 9, 24 h after intravenous injection of agents into rats. The samples were stored at -20°C until they were analyzed. The urine samples were centrifuged for 8 min at 13000 ×g and then filtered by 0.22 μm syringe filter. A series of working solution of each agent with concentrations between 0.02 mg/mL and 2 mg/mL were prepared. Appropriate volumes of the working solutions were added to blank urine and fluorescent intensity of those mixtures were measured in order to obtain an external calibration curve. Quantification of each of the agents in urine at each time point was performed via HPLC analysis and fluorescence intensity detection. The concentration in urine at each time point was calculated based on the external calibration standards curve between fluorescence intensity and the concentration of each of the agents.
Considering biological components within urine may interfere with the fluorescent intensity of agents, the fluorescent intensity of agent were tested to study whether there is difference in urine and PBS, the emission intensity and calibration curve are compared (Figure S11). The results […]
This slightly difference can explained the urinary recoveries have some trial a little over 100% (Table S6 and S7), which can be found in other literatures studies. […]

[3] = tested on: organic anion transporter (OAT) proteins; test: Transcutaneous measurement of elimination kinetics in healthy rats; format: in vivo, Sprague Dawley rats; details: Sprague Dawley, rat, skin (transcutaneous fluorescence signal), ip; healthy rats, 50 mg/kg probenecid i.p. 30 min prior to injection, transcutaneous; read-out: T 1/2 with probenecid (clearance half-life)
Procedure: as §1, §2, §3, §4

[4] = tested on: Sprague Dawley rat plasma; test: Plasma protein binding (PPB) by equilibrium dialysis; format: in vitro ADME; details: equilibrium dialysis of PBS against dye-plasma stock, 37°C, 24 hours, UV absorption
Source text: (§5) The interaction between fluorescent dyes and plasma proteins is particularly important as it affects the capability of the dyes as GRF agents in the following aspects: bio-distribution and clearance pathways as well as the rate of excretion in vivo.[15] […] ABCACY and AACACY display 54.5% and 60% PPB, respectively. […] Additionally, PPB is not only dependent on the dye hydrophilicity, but is also related to the molecular charge number and distribution. Since albumin is alkalotic, acidic agents will preferentially bind to albumin, then to lipoprotein after albumin becomes saturated. Basic agents will bind to the acidic alpha-1 acid glycoprotein.[17] Thus, anionic and cationic compounds are more inclined to bind to proteins than zwitterionic compounds. Therefore, we will mainly focus on zwitterionic compounds in the following parts.
5. […]
(§6) PPB measurements were performed by equilibrium dialysis of PBS against dye-protein stock solution (or control stock solution) using a two-chamber dialysis set-up. After 24 hours the absorption of each of the dyes or agents in PBS and plasma were determined in three independent measurements by both absorption spectroscopy and fluorescence spectroscopy in a microplate reader. The concentrations of each of the dyes or agents were calculated on the basis of the corresponding molar absorption coefficients. […] PPB in percent [%] was determined by averaging three independent measurements and following the equation of Lambert Beer law: […]
(§7) ABZWCY-HPβCD (1 mg/mL in PBS), SD rat plasma (50% in PBS), ABZWCY-HPβCD (1 mg/mL) mixed with SD rat plasma (50% in PBS) were prepared and filtered through a sterile 0.22 μm filter before analysis. […] The measurements were carried out in quadratic cells and analyzed the scattered light at an angle of 90° at a controlled temperature (25 °C). […] The apparent hydrodynamic radius was calculated according to the Stokes-Einstein […]

[5] = as above; format: in vitro ADME, Sprague Dawley rat; details: Sprague Dawley, rat, plasma (Li-Heparin), equilibrium dialysis of PBS against dye-plasma stock, 37°C, UV absorption
Source text: as §5
5. […]
as §6, §7

Transcutaneous elimination (clearance) curve, in words ([1]; healthy rats): no decay even at 90 min post-injection
SMILES: CC1(C)C(/C=C/C2=C(Oc3ccc(S(=O)(=O)O)cc3)C(=C/C=C3/N(CCCCS(=O)(=O)O)c4ccc(S(=O)(=O)[O-])cc4C3(C)C)/CCC2)=[N+](CCCCCC(=O)O)c2ccc(S(=O)(=O)O)cc21 [IRDye800CW, reference compound]
PPB (plasma protein; previous study of the authors): 41%

dose excreted ([2]; Sprague Dawley, rat, urine, iv, 2.5 mg/kg, healthy rats, i.v., mean ± SD, n = 3, read-out: Urinary recovery in 24 h): 99.4 ± 4.8%
dose excreted at 1 h ([2]; Sprague Dawley, rat, urine, iv, 2.5 mg/kg, individual rats, cumulative, time 1 h after i.v. injection): 46.7%
dose excreted at 2 h ([2]; Sprague Dawley, rat, urine, iv, 2.5 mg/kg, individual rats, cumulative, time 2 h after i.v. injection): 65%
dose excreted at 6 h ([2]; Sprague Dawley, rat, urine, iv, 2.5 mg/kg, individual rats, cumulative, time 6 h after i.v. injection): 87.2%
dose excreted at 9 h ([2]; Sprague Dawley, rat, urine, iv, 2.5 mg/kg, individual rats, cumulative, time 9 h after i.v. injection): 96.9%
dose excreted at 24 h ([2]; Sprague Dawley, rat, urine, iv, 2.5 mg/kg, individual rats, cumulative, time 24 h after i.v. injection): 98.3%
Urinary recovery at 1 h ([2]; individual rats, cumulative, time 1 h after i.v. injection): 53.33% and 49.29%
Urinary recovery at 2 h ([2]; individual rats, cumulative, time 2 h after i.v. injection): 73.06%
Urinary recovery at 6 h ([2]; individual rats, cumulative, time 6 h after i.v. injection): 81.95% and 89.05%
Urinary recovery at 9 h ([2]; individual rats, cumulative, time 9 h after i.v. injection): 86.39%
Urinary recovery at 24 h ([2]; individual rats, cumulative, time 24 h after i.v. injection): 93.3% and 106.6%
half-life [3]: 48.7 ± 5.4 min
half-life ([1]; Sprague Dawley, rat, skin (transcutaneous fluorescence signal), iv, 2.5 mg/kg, healthy rats 8-10 weeks, i.v. bolus, transcutaneous measurement, read-out: T 1/2 without probenecid (clearance half-life)): 52.6 ± 8.8 min
PPB [4]: 19%
fraction unbound at 24 h, 0.2 mg/mL [5]: ~0.8
SMILES: CC1(C)C(/C=C/C2=C(Nc3ccc(CCC(=O)O)cc3)C(=C/C=C3/N(CCC[N+](C)(C)C)c4ccc(S(=O)(=O)O)cc4C3(C)C)/CCC2)=[N+](CCC[N+](C)(C)C)c2ccc(S(=O)(=O)O)cc21 [ABZWCY]
Tubular reabsorption or secretion in the kidneys (from probenecid effect) ([1]; healthy rats, half-life with versus without probenecid): tubular reabsorption or secretion is a minor factor
Transcutaneous elimination (clearance) curve, in words ([1]; healthy rats): did not return to background levels at 2 h post-injection

fraction unbound at 24 h, 0.2 mg/mL [5]: 0.843
SMILES: CC1(C)C(/C=C/C2=C(Nc3ccc(CCN=[N+]=[N-])cc3)C(=C/C=C3/N(CCC[N+](C)(C)C)c4ccc(S(=O)(=O)O)cc4C3(C)C)/CCC2)=[N+](CCC[N+](C)(C)C)c2ccc(S(=O)(=O)O)cc21 [AAZWCY]

The next lines start with the compound.

SMILES: CNC(=O)c1c(I)c(NC(C)=O)c(I)c(C(=O)O)c1I [iothalamate]
PPB (plasma protein; 'gold standard' renal function agent): 9.5%

SMILES: CC1(C)C(/C=C/C=C/C=C/C=C2\N(CCCCS(=O)(=O)O)c3ccc4ccccc4c3C2(C)C)=[N+](CCCCS(=O)(=O)[O-])c2ccc3ccccc3c21 [ICG, indocyanine green]
PPB (plasma protein): 99%
